Series [1] is described as follows: Critical micelle concentration by fluorescence staining with diphenylhexatriene (DPH). Type of series: physicochemical. The settings on record: aqueous solution. Here is the method:
While a method for measuring CMC is not particularly limited, a method widely known in the art may be used, and the measurement may be performed by, for example, a fluorescence staining method using diphenylhexatriene (DPH).
(§1) Specifically, the critical micellar concentration (CMC) was measured using fluorescence staining and diphenylhexatriene (DPH), and the hydrodynamic radii (Rh) of the micelles formed by agents were measured through a dynamic light scattering (DLS) experiment. The measured results are shown in Tables 1 and 2, compared with a conventional amphiphilic molecule (detergent), DDM.

For series [2], the target named is T1, melibiose permease (MelB) (Salmonella typhimurium, UniProt P30878).
T1 construct: made in house; host or cells: Salmonella typhimurium DW2 cells (ΔmelB and ΔlacZY) (so in the source); membrane preparation
The series is described as follows: MelB extraction from membranes and thermostability, SDS-PAGE and western blotting. Conditions: for MelB protein extraction efficiency / MelB protein extraction / maintained solubilization / MelB protein extraction: 1.5 wt % detergent, 90 minutes; for MelB protein extraction / maintained solubilization: 55° C.; for MelB protein extraction: 65° C. Here is the method:
An experiment for measuring the structural stability of the Salmonella typhimurium melibiose permease (MelB) protein due to XMAs was performed. The MelB protein was extracted on a membrane using XMAs and DDM, and the amount and structure of the extracted protein were analyzed by SDS-PAGE and western blotting. A concentration of the used compound was 1.5 wt %, and the protein was extracted at a different temperature (0, 45, 55, or 65° C.) to evaluate two kinds of performance such as protein extraction efficiency and stabilization ability of the compound at the same time. Membrane samples that were not treated with XMAs or DDM were used as controls.
Specifically, MelBSt stability due to DDM and XMAs was evaluated according to the method described in the paper (P. S. Chae, et al., Nat. Methods 2010, 7, 1003-1008) written by the inventor in 2010. The protein (MelBSt) was produced using plasmid pK95ΔAHB/WT MelBSt/CH10 encoding wild-type MelB with a 10-His tag at the C-terminus and Salmonella typhimurium DW2 cells (ΔmelB and ΔlacZY). Cell growth and membrane preparation were carried out according to the method described in the paper (Nat. Commun. 2014, 5, 3009) written by A. S. Ethayathulla et al. A protein assay was performed using a Micro BCA kit (Thermo Scientific, Rockford, Ill.). To measure solubilization/stability, MelBSt-containing membrane samples (final protein concentration of 10 mg/mL) were incubated with a solubilization buffer (20 mM sodium phosphate, pH 7.5, 200 mM NaCl, 10% glycerol, 20 mM melibiose) and 1.5% (w/v) DDM, P-XMAs (P-XMA-C8, P-XMA-C9, P-XMA-C10, P-XMA-C11 and P-XMA-C12), M-XMAs (M-XMA-C11, M-XMA-C12, M-XMA-C14, M-XMA-C16 and M-XMA-C18) or O-XMAs (O-XMA-C11, O-XMA-C12, O-XMA-C14, O-XMA-C16 and O-XMA-C18) at four different temperatures (0, 45, 55 and 65° C.) for 90 minutes. Following ultracentrifugation at 355,590 g in a Beckman Optima™ MAX ultracentrifuge using a TLA-100 rotor for 45 minutes at 4° C., 20 μg proteins were separated by SDS-16% PAGE, and then immunoblotted with a Penta-His-HRP antibody (Qiagen, Germantown, Md.). MelBSt was detected using a SuperSignal West Pico chemiluminescent substrate by an ImageQuant LAS 4000 Biomolecular Imager (GE Health Care Life Sciences).
For orientation: Immunoblotting shows a protein as a band on a membrane.

The target of series [3] is T2, human β2 adrenergic receptor (β2AR) (Homo sapiens, UniProt P07550).
T2 construct: made in house
The series is described as follows: mBBr-β2AR fluorescence spectrum after dilution to CMC or less. Type of series: biochemical. Conditions: diluted with NH buffer, 30 minutes. Here is the method:
An experiment for comparing changes in protein structures of XMAs and DDM at CMC or less of an amphiphilic molecule was carried out.
Specifically, 0.5 μl of an unliganded mBB-labeled receptor solubilized in 20×CMC P-XMA-C11 or P-XMA-C12 at 50 μM was diluted with 500 μl of a NH buffer (20 mM HEPES pH 7.5, 100 mM NaCl). The protein was incubated for 30 minutes, and the mBBr spectrum was measured. The receptor solubilized in 0.1% DDM was diluted with a NH buffer, and used as a control.

Series [4] in a line: Hydrodynamic radius and size distribution of micelles by dynamic light scattering (DLS). The class given is physicochemical. The settings on record: for Rh (nm), hydrodynamic radius of micelles: 1.0 wt % stated for M-/O-XMAs (FIG. 37); for size distribution of micelles (number of micelle sets): FIGS. 36 and 37. Here is the method: A method for measuring the radius of a micelle is not particularly limited, but a method well known in the art may be used, and for example, the measurement may be performed using a dynamic light scattering (DLS) experiment.
as §1

The target in another series is T3, boron transporter (Bor1) (Arabidopsis thaliana, UniProt Q8VYR7).
T3 construct: GFP-His (TEV-cleavable) (C, cleaved yes); made in house; host or cells: S. cerevisiae
The series is described as follows: Bor1 structural stability in detergent solution, CPM assay. Conditions: CMC+0.04 wt % and CMC+0.2 wt %; two hours at 40° C. Here is the method: An experiment for measuring the structural stability of a boron transporter (Bor1) in an aqueous solution due to P-XMAs was performed. The Bor1 structural stability was measured using a CPM assay, and concentrations of P-XMAs and DDM were estimated by measuring relative amounts of folded proteins at CMC+0.04 wt % (a) and CMC+0.2 wt % (b) to analyze Bor1 protein stability according to the concentration of an amphiphilic molecule.
Specifically, Bor1 was expressed as a fusion protein with a C-terminal GFP-His tag in S. cerevisiae. All steps were carried out at 4° C. A Bor1-containing membrane was resuspended with PBS (pH 7.4), 100 mM NaCl, and 10% glycerol and solubilized in 1% DDM for 1 hour with gentle stirring, followed by ultracentrifugation at 200,000 g for 45 minutes. The supernatant was adjusted with 10 mM imidazole, and applied to two 5 ml Ni^2+-NTA columns pre-equilibrated with Buffer A (PBS (pH 7.4), 100 mM NaCl, 10% glycerol, 0.03% DDM) supplemented with 10 mM imidazole. The column was washed with 5 CV of Buffer A supplemented with 30 mM imidazole, and washed with 5 CV of Buffer A supplemented with 50 mM imidazole, followed by elution in Buffer A supplemented with 500 mM imidazole. […] A clear plate cover was added, and the fluorescence of each well was monitored at 40° C. for 120 minutes.

Series [5] has as its target T2, human β2 adrenergic receptor (β2AR). In words: [3H]-dihydroalprenolol radioligand binding of β2AR purified in detergent. Conditions: 10 nM [3H]-DHA, 30 minutes, room temperature. As to the method: An activation degree of a receptor (mBBr-β2AR) purified by DDM or XMAs was measured by [^3H]-dihydroalprenolol ([^3H]-DHA) binding.
Specifically, a radioligand binding assay was performed by the following method. β2AR was purified in the presence of 0.1% DDM. After β2AR was reloaded into an M1 Flag column in the presence of 2 mM CaCl2, a DDM (0.1%)-XMA (0.2%) buffer mixture was prepared in a ratio of 50:50, 20:80, 10:90, 5:95 or 0:100. The receptor was eluted in 20×CMC XMA with 5 mM EDTA and 0.2 mg/ml of a free Flag peptide. 0.1 pmol purified β2AR solubilized in DDM, P-XMA-C11, P-XMA-C12, M-XMAs or O-XMAs was incubated with 10 nM of radioactive DHA [^3H]-dihydroalprenolol (DHA) for 30 minutes at room temperature. The mixture was loaded into a G-50 column, and a flow-through was collected with a binding buffer (20 mM HEPES pH 7.5, supplemented with 0.5 mg/ml BSA, 100 mM NaCl), and further filled with 15 ml of a scintillation fluid. Receptor-binding [^3H]DHA was measured with a scintillation counter (Beckman). Non-specific binding of [^3H]-DHA was calculated by adding 1 μM of alprenolol (Sigma) in the same binding reaction. The binding degree of [^3H]-DHA was measured as a column graph.

“And” between values parts separate entries of the source, which are not always exact repeats. Identical values can stand only once. “Also recorded” adds a separate entry of the source.

The text below walks through data of patent US10647738B2, “Xylene-based amphiphilic compound and use thereof” (Industry-University Cooperation Foundation Hanyang …, priority 2016, dated 2020).

T1 sequence (P30878 whole entry): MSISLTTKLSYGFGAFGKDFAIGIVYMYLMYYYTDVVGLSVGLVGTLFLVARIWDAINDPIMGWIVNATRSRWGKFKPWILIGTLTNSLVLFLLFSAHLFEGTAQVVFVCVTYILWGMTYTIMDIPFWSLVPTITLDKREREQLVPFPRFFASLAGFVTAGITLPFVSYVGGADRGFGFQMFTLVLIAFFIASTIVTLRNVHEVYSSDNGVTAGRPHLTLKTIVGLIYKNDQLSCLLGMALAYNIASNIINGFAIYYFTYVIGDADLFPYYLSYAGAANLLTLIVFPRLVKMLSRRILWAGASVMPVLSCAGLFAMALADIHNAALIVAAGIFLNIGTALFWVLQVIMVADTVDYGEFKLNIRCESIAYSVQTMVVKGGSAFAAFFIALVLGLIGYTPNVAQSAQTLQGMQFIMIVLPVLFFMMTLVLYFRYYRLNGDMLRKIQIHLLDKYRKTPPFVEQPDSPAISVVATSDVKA
T2 sequence (P07550 whole entry): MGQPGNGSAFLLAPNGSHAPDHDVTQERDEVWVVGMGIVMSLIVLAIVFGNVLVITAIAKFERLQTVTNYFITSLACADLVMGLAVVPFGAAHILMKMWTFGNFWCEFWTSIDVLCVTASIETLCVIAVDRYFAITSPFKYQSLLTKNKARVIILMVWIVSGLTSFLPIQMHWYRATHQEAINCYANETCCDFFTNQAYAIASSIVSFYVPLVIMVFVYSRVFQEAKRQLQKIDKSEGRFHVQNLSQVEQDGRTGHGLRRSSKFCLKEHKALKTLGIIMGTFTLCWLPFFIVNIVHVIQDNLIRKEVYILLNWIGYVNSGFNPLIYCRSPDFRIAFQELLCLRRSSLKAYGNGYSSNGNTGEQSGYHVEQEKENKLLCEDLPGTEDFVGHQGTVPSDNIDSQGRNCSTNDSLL
T3 sequence (Q8VYR7 whole entry, species assumed): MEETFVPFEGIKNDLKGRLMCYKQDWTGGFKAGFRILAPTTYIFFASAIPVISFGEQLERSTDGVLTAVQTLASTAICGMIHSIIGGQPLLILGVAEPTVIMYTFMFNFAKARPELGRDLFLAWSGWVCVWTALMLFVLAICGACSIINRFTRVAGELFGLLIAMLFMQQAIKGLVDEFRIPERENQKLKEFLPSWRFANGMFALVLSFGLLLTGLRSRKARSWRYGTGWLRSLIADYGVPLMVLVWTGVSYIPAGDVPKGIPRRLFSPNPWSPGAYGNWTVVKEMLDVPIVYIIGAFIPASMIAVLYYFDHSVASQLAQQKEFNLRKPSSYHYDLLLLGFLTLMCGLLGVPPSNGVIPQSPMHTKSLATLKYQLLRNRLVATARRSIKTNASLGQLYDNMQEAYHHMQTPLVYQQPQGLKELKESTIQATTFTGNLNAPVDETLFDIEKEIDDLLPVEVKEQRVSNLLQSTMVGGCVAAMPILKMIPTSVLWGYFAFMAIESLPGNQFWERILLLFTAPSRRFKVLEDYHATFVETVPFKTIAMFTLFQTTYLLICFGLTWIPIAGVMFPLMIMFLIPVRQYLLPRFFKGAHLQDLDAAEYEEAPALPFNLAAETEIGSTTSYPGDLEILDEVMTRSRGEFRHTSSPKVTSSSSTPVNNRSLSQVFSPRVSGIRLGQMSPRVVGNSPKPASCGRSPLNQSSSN

`CCCCCCCCCCCCO[C@@H]1O[C@H](CO)[C@@H](O[C@H]2O[C@H](CO)[C@@H](O)[C@H](O)[C@H]2O)[C@H](O)[C@H]1O` [DDM, n-dodecyl-β-D-maltopyranoside, reference compound]: in series [1], the “CMC” value is ~170 µM and the “CMC (wt %)” value is ~0.0087 wt %. Moreover, the “MelB protein extraction efficiency” value in series [2] (0° C.) is “high protein extraction efficiency”. For the same compound, the “MelB protein extraction efficiency” value in series [2] (45° C.) is recorded as “high protein extraction efficiency”. In series [2], the “MelB protein extraction / maintained solubilization” value is “hardly observed; also recorded: failed to maintain the solubilization of MelB” and the MelB protein extraction result is listed as “did not extract the protein”. In addition, the “structural change of β2AR on dilution to CMC or less” value in series [3] is given as “clear structural change due to dilution”. In series [4], the “Rh (nm), hydrodynamic radius of micelles” value was 3.4 nm and 3.4 ± 0.02 nm; the “size distribution of micelles (number of micelle sets)” value is listed as “one set of micelles”. In addition, the “Bor1 structural stability (relative amount of folded protein)” value at boron transporter (Bor1) is given as “most instable state”.

`CCCCCCCCCCCCC(CO[C@@H]1OC(CO)[C@@H](O[C@H]2OC(CO)[C@@H](O)C(O)C2O)C(O)C1O)(CO[C@@H]1OC(CO)[C@@H](O[C@H]2OC(CO)[C@@H](O)C(O)C2O)C(O)C1O)Cc1ccc(CC(CCCCCCCCCCCC)(CO[C@@H]2OC(CO)[C@@H](O[C@H]3OC(CO)[C@@H](O)C(O)C3O)C(O)C2O)CO[C@@H]2OC(CO)[C@@H](O[C@H]3OC(CO)[C@@H](O)C(O)C3O)C(O)C2O)cc1` (some centres unmarked) [P-XMA-C12]: in series [1], the “CMC” value is ~1 µM and the “CMC (wt %)” value was ~0.0002 wt %. The “MelBSt stabilization ability compared with DDM” value in series [2] (1.5 wt % detergent, 0, 45, 55 and 65° C.) is given as “higher MelBSt stabilization ability than DDM”. Also, in series [2] (45° C.), the “MelB protein extraction efficiency” value is “extraction efficiency at the same level as DDM”. Also, in series [2], the “MelB protein extraction / maintained solubilization” value was “higher MelBSt extraction ability than DDM” and the MelB protein extraction entry is on record as “extracted MelBSt”. The “structural change of β2AR on dilution to CMC or less” value in series [3] is reported as “less structural change”. Also, the “[3H]-DHA binding degree of purified β2AR” value in series [5] is “radioactive-ligand binding degree similar to the receptor purified by DDM”. Further, in series [4], the “Rh (nm), hydrodynamic radius of micelles” value was 3.7 nm and 3.7 ± 0.01 nm; the “size distribution of micelles (number of micelle sets)” value was “two sets of micelles having different radii”.
